Test results taken from patent publication US20220411495A1, “POSITIVE ALLOSTERIC MODULATORS OF THE CALCIUM-SENSING RECEPTOR” (VIB VZW, priority 2019, published 2022).
Positions count from the first letter of the chain named.

T1: CaSR 7-transmembrane domain allosteric binding site (Homo sapiens, UniProt P41180)
T1 sequence (P41180 20-1078): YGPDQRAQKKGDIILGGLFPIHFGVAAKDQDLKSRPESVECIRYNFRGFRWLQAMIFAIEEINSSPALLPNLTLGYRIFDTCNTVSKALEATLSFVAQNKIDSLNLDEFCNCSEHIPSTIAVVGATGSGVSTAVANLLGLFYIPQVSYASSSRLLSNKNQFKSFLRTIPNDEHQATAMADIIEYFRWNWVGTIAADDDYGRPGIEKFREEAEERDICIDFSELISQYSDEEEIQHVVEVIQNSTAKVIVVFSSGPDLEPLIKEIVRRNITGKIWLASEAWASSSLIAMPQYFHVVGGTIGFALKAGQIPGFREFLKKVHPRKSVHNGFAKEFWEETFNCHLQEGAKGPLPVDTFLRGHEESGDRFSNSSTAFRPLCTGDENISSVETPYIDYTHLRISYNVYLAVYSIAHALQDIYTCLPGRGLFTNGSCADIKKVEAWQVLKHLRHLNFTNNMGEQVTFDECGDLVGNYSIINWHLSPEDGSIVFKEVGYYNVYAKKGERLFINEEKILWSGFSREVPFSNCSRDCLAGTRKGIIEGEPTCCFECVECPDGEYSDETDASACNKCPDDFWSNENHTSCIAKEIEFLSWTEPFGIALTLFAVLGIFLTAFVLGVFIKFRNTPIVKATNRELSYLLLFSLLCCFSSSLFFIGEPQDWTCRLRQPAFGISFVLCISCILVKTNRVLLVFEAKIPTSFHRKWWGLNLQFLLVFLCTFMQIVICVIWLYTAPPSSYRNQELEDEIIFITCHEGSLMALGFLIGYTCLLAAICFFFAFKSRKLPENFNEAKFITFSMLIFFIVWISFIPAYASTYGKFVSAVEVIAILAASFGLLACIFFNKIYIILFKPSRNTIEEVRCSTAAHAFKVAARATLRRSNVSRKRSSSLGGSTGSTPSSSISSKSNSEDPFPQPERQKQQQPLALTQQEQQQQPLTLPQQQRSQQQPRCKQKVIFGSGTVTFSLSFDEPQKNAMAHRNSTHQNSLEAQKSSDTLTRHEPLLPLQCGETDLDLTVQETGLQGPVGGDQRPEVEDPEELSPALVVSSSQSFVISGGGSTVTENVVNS

T2: loss-of-function mutant CaSR Q459R (Homo sapiens, UniProt P41180, Q459R)
T2 construct: expressed in transfected cells
T2 sequence (P41180 20-1078 Q459R): T1 sequence (P41180 20-1078) with Q440R

B1: Nb4: llama-derived CaSR-specific nanobody acting as PAM, SEQ ID NO:5 (protein)
VHH: QVQLVESGGGLVQAGGSLRLSCAASGRTFSTYRMGWFRQGLGKEREFVAAITANGVRTFYTDSVKGRFTISRDNAKNTLYLQMNSLQPDDTAVYLCAARRKGIFTVQQAQDITDWDYWGQGTQVTVSS
modifications: CaSR Nb4

What was measured:
[1] = biological target: T1, CaSR 7-transmembrane domain allosteric binding site; experiment: [3H]evocalcet radioligand displacement
Procedure: For the seven different nanobodies with potencies in the 10 to 600 nM range, further characterization of their recognition site on the CaSR antigen was performed, since the identification of the nanobody binding-sites at the CaSR is key to understand their interaction and mode-of-action at a molecular and structural level, and will further aid in the development of second-generation nanobodies with enhanced pharmacological parameters. Nanobodies belonging to each family of the five different nanobody families are expected to interact with distinct regions of the CaSR.

[2] = biological target: T2, loss-of-function mutant CaSR Q459R; experiment: IP1 accumulation assay, Ca2+ concentration-response curve of CaSR Q459R; assay type: cell-based; conditions: preliminary experiment; for Concentration at which the PAM effect is initiated: Ca2+ concentration-response curve; for Effect on potency for Ca2+ in CaSR Q459R: increasing PAM concentrations
Procedure: In comparison with loss-of-function mutant S170A, Q459R is a naturally occurring loss-of-function mutant that has previously been associated with familial hypocalciuric hypercalcemia (FHH). The effect of increasing concentrations of CaSR Nb4 or the clinically used PAM cinacalcet on the Ca^2+ concentration-response curve were measured with the IP1 accumulation assay. […] The PAM effect of CaSR Nb4 (0.04 μM) is initiated at a much lower concentration than for cinacalcet (5 μM).
Inositol monophosphate (IP1) accumulation was measured using the commercially available HTRF® IP1 accumulation kit (Cisbio Bioassays, Codolet, France) and an EnVision multimode plate reader (PerkinElmer, Waltham, Mass., USA). Unless stated otherwise, the cells were washed once with 100 μL/well assay buffer and stimulated for 30 minutes at 37° C. with 50 μL/well ligand(s) diluted in assay buffer supplemented with 20 mM LiCl. Following stimulation, the cells were washed once with 100 μL/well and lysed for 30 minutes at room temperature with 30 μL/well lysis buffer provided with the kit. The lysed cells were diluted 1:2 with assay buffer after which 10 μL/well was pipetted to a white 384-well OptiPlate (PerkinElmer, Waltham, Mass., USA). Next, 10 μL of a detection solution consisting of 2.5% IP1-d2 conjugate and 2.5% anti-IP1 antibody diluted in assay buffer was added to each well. Fluorophore emissions were measured after the plate was stored in the dark for 1 h. The 615/665 nm emission ratios measured upon excitation at 340 nm were converted to IP1 concentrations with an IP1 standard curve according to the manufacturer's instructions.

Row | Molecule | Displacement of [3H]evocalcet binding [1] | Concentration at which the PAM effect is initiated [2] [µM] | Effect on potency for Ca2+ in CaSR Q459R [2]
1 | C[C@@H](NCCCc1cccc(C(F)(F)F)c1)c1cccc2ccccc12 [cinacalcet, reference compound] | did displace | 5 | able to increase the potency for Ca^2+
2 | B1 | do not displace | 0.04 | able to increase the potency for Ca^2+
